Source: paper PMC11811597, “Phenomics‐Based Discovery of Novel Orthosteric Choline Kinase Inhibitors” (Angewandte Chemie (International Ed. in English), 2025)

Assays:
[1] = biological target: T1, CHKA (Homo sapiens, UniProt P35790); experiment: Differential scanning fluorimetry (DSF); type: binding; parameters: host or cells: E. coli BL21(DE3); conditions: 10 µM compound, 2 µM CHKA
Experimental: mM NaCl, 5% glycerol, 500 mM imidazole, 0.5% TCEP, pH 7.5), the eluent was concentrated, and further purified by size exclusion chromatography using a HiLoad 16/600 Superdex S200 column (Cytiva) pre-equilibrated in Buffer C (20 mM HEPES, 150 mM NaCl, pH 7.5). The resulting protein purity was assessed by SDS-PAGE, and protein identity was confirmed by tryptic digest analysis. Protein concentration was determined to be 35.5 mg/mL, and was calculated using a theoretical molar extinction coefficient of 58830 M-1cm-1 as determined by ProtParam.[5] […]
Differential Scanning Fluorimetry (DSF)
DSF buffer (20 mM HEPES, 150 mM NaCl, 0.5 mM TCEP, pH 7.5) containing 5x SYPRO Orange (Thermo Fisher Scientific) and CHKA (2 µM) was incubated with 10 µM compound at 2% DMSO final concentration in a 96-well semi-skirted real time PCR plate. Fluorescence was measured in each well over a 40-80 °C gradient using a Stratagen MX3005p qPCR instrument (Agilent Technologies). […]

[2] = tested on: primary human cell‐based tissue and disease models; experiment: BioMAP Diversity PLUS panel; conditions: 12 systems, Pearson's correlation >0.7
Text: Having confirmed that UNC0638 and UNC0737 are potent bona fide CHKA inhibitors, we next turned our attention to further investigate the role of CHKA in cellular signalling. While CHKA has been studied extensively in the context of malignant disease, there has been a growing acknowledgment of its relevance in immune metabolism.[9, 10] […] We profiled UNC0638 and UNC0737 alongside the orthogonal CHKA inhibitors V‐11‐0711 and ARIAD against the BioMAP Diversity PLUS panel (Figures S7).[24] This set comprises 148 distinct biomarkers across 12 systems, including panels for systemic immune responses. […] The decrease in IgG secretion was accompanied by a reduction in stimulation‐induced B cell maturation into CD27^+IgD^− memory CD19^+ B cells (Figure 4D). […]
consecutive concentrations change in the same direction relative to vehicle controls, are outside of the significance envelope, and have at least one concentration with an effect size > 20% (|log10ratio| > 0.1). Biomarker key activities are described as modulated if these activities increase in some systems, but decrease in others. Cytotoxicity is indicated on the profile plot by a thin black arrow above the x- […]
Cytotoxicity and antiproliferative arrows only require one concentration to meet the indicated threshold for profile annotation. […]

[3] = tested on: MCF7, MDA‐MB‐231, HEK293, HepG2, U2OS and K562 cells; experiment: 72 h cell viability assay (Cell Titer-Glo); type: cell-based, human; conditions: 0-50 μM
Text: We compared morphological fingerprints of multiple parameters to assess overall biological similarity (Biol. Sim.) (Figure 1B).
A-366 and UNC0638 were purchased from Tocris. ARIAD and V-11-07-11 were purchased from Wuxi Apptec. UNC0737 and UNC0965 were synthesised as previously described.[1] Hemicholinium-3 and pyruvate kinase/lactic dehydrogenase enzymes were purchased from Sigma Aldrich. Aqueous and organic solvents were MS-grade and acquired by Sigma Aldrich unless stated otherwise.
MDA-MB-231, MCF7 and HEK293 cells were cultured in DMEM (Gibco, #11965092) supplemented with 10% FBS. K562 were cultured in IMDM (Gibco, #12440053) supplemented with 10% FBS. HepG2 were cultured in MEM (Gibco, #11095080) supplemented with 10 % FBS. […]
cultured in McCoy’s 5A (Sigma, M8403) supplemented with 10 % FBS and 1x GlutaMAX (Gibco, #35050061). Cells were maintained at 37 °C in a humidified 5% CO2 atmosphere. Peripheral blood mononuclear cells (PBMC) were isolated from healthy blood donors by density centrifugation.
MDA-MB-231, MCF7 or HEK293 cells (7.5 × 10^4 cells/mL) were each plated into x1 white 384-well polystyrene plate (Greiner Bio-One Ltd). A-366, […] and UNC0737 were directly added to each well of the cell line plates, at final concentrations 0-50 μM and incubated for 72 h at 37 °C/ 5% CO2.
Cell Titer-Glo® reagent was added to each well and total luminescence readings were performed within 15 min using the PHERAstar FSX (BMG Labtech). The cell viability results were normalised to the DMSO control and plotted using the sigmoidal dose-response (variable slope) equation in […]
Chemical Proteomics Drug Pulldown
For lysate generation MCF7 cells were grown until approximately 80% confluency before being pelleted and washed with PBS. […]
MDA-MB-231, […], HepG2, U2OS and K562 cells following treatment with A-366, UNC0638 and UNC0737 after 72 h measured by Cell Titer Glo assay (n=3). […]

[4] = biological target: T1, CHKA; experiment: Isothermal calorimetry (ITC); type: binding; parameters: host or cells: E. coli BL21(DE3)
Experimental: mM NaCl, 5% glycerol, 500 mM imidazole, 0.5% TCEP, pH 7.5), the eluent was concentrated, and further purified by size exclusion chromatography using a HiLoad 16/600 Superdex S200 column (Cytiva) pre-equilibrated in Buffer C (20 mM HEPES, 150 mM NaCl, pH 7.5). The resulting protein purity was assessed by SDS-PAGE, and protein identity was confirmed by tryptic digest analysis. Protein concentration was determined to be 35.5 mg/mL, and was calculated using a theoretical molar extinction coefficient of 58830 M-1cm-1 as determined by ProtParam.[5]
Isothermal Calorimetry (ITC)
ITC experiments were performed in a buffer containing 20 mM HEPES pH 7.5 and 200 mM NaCl, using an VP-ITC microcalorimeter (MicroCal) at 15 °C. The protein concentration was 200 µM and compounds were tested at 20 µM. The titrations were conducted using an initial injection of 4 μL followed by further 29 injections of 8 μL each. Thermodynamic parameters were calculated using ΔG = ΔH − TΔS = −RT ln KB, where ΔG, ΔH, and ΔS are the changes in free energy, enthalpy, and entropy of binding, respectively. Single binding models were employed to fit the data. […]

T1 sequence (P35790 75-457 limits assumed): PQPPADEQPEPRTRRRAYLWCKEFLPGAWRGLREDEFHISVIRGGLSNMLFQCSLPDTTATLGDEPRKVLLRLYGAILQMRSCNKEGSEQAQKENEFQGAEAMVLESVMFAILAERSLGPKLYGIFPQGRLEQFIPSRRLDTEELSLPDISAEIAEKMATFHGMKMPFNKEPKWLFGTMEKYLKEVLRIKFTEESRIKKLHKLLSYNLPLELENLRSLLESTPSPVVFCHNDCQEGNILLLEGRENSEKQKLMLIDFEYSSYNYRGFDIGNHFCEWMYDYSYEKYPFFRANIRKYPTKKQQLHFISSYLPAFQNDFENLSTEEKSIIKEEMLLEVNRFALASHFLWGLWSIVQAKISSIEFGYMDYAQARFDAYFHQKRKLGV

| SMILES | thermal stabilisation of CHKA (DSF) [1] | clustering of overall BioMAP responses across all biomarkers [2] | effect on cell viability [3] | Kd [4] |
| --- | --- | --- | --- | --- |
| COc1cc2c(NC3CCN(C(C)C)CC3)nc(N3CCC(F)(F)CC3)nc2cc1OCCCN1CCCC1 [UNC0642] | exhibited CHKA stabilisation albeit to lesser degree than UNC0737 |  |  |  |
| COc1cc2nc(N3CCCN(C)CC3)nc(NC3CCN(Cc4ccccc4)CC3)c2cc1OC [BIX‐01294] | exhibited CHKA stabilisation albeit to lesser degree than UNC0737 |  |  |  |
| COc1cc2c(cc1OCCCN1CCCC1)N=C(N)C21CCC1 [A‐366] | not | did not exhibit any overlap | less efficient in inducing cancer cell death |  |
| C[N+]1(C)CCOC(O)(c2ccc(-c3ccc(C4(O)C[N+](C)(C)CCO4)cc3)cc2)C1 (stereo not drawn) [HC3, hemicholinium‐3] |  |  |  | 40.6 nM |
